The test system of assay [1] is Leishmania major amastigotes. As to the kind of experiment: Leishmania major amastigote assay. Type of assay: cell-based. The following applies: Leishmania major, read-out: L. maj EC50.
Assay [2] relates to L. donovani. As to the kind of experiment: L. donovani in vitro assay. The format is cell-based, Leishmania donovani.
The test system of assay [3] is T. brucei. As to the kind of experiment: T. brucei proliferation inhibition assay. The format is cell-based, Trypanosoma brucei. The note with it: Trypanosoma brucei, read-out: T. brucei EC50 ± S.D.
The subject of assay [4] is T. cruzi CA-I/72. As to the kind of experiment: T. cruzi in vitro assay, C2C12 host cell. The following applies: Trypanosoma cruzi, C2C12, read-out: T. cruzi EC50. Type of assay: cell-based, Trypanosoma cruzi.
Where [5] appears, read: Leishmania donovani, read-out: L. don EC50, B10R host cell line.

SMILES strings stand for the structures. Read-outs that look alike come from different tables or passages of the source.

As to `CN1CCN(S(=O)(=O)c2ccc(-c3ccc4nncc(Nc5ncc(Cl)cn5)c4c3)cc2)CC1` [Compound 14a, N-(5-Chloropyrimidin-2-yl)-6-(4-((4-methylpiperazin-1-yl)sulfonyl)phenyl)cinnolin-4-amine], the EC50 in assay [1] turned out to be 0.005 µM; in assay [2] (read-out: L. don EC50, B10R host cell line), 0.069 µM; in assay [3], 0.82 ± 0.19 µM; in assay [4] it was 4.1 µM.

As for `CN1CCN(S(=O)(=O)c2ccc(-c3ccc4nncc(Nc5cnccn5)c4c3)cc2)CC1` [Compound 15a, 6-(4-((4-Methylpiperazin-1-yl)sulfonyl)phenyl)-N-(pyrazin-2-yl)cinnolin-4-amine], the EC50 in assay [1] was 7.8 µM; in assay [2] (setting [5]), more than 10 µM; in assay [3], 1.2 ± 0.18 µM; in assay [4], more than 10 µM.

`CN1CCN(S(=O)(=O)c2ccc(-c3ccc4c(Nc5cnccn5)cnnc4c3)cc2)CC1` [Compound 15b, 7-(4-((4-Methylpiperazin-1-yl)sulfonyl)phenyl)-N-(pyrazin-2-yl)cinnolin-4-amine]: the EC50 is more than 22 µM in assay [1], 5.52 µM in assay [2] (setting [5]), 9.7 ± 2.1 µM in assay [3] and 6.5 ± 2.3 µM in assay [4].

`CN1CCN(S(=O)(=O)c2ccc(-c3ccc4c(Nc5ncccn5)cnnc4c3)cc2)CC1` [Compound 16b, 7-(4-((4-Methylpiperazin-1-yl)sulfonyl)phenyl)-N-(pyrimidin-2-yl)cinnolin-4-amine]: the EC50 in assay [1] was more than 11 µM; in assay [2] (setting [5]), more than 10 µM; in assay [3] it was 11 ± 1.5 µM; in assay [4], more than 10 µM.

As for `COc1ccc(Nc2cnnc3ccc(-c4ccc(S(=O)(=O)N5CCN(C)CC5)cc4)cc23)cc1Cl` [Compound 17a, N-(3-Chloro-4-methoxyphenyl)-6-(4-((4-methylpiperazin-1-yl)sulfonyl)phenyl)cinnolin-4-amine], the EC50 in assay [1] was more than 19 µM; in assay [2] (setting [5]), 9.3 µM; in assay [3], 1.6 ± 0.36 µM; in assay [4], more than 10 µM.

As for `COc1ccc(Nc2cnnc3ccc(-c4ccc(S(=O)(=O)N5CCN(C)CC5)cc4)cc23)cc1` [Compound 18a, N-(4-Methoxyphenyl)-6-(4-((4-methylpiperazin-1-yl)sulfonyl)phenyl)cinnolin-4-amine], the EC50 in assay [1] was more than 20 µM; in assay [2] (setting [5]) it was 3.4 µM; in assay [3], 0.39 ± 0.2 µM; in assay [4], 8 µM.

In the case of `COc1ccc(Nc2cnnc3ccc(-c4ccc(S(=O)(=O)N5CCN(C)CC5)cc4)cc23)nc1` [Compound 19a, N-(5-Methoxypyridin-2-yl)-6-(4-((4-methylpiperazin-1-yl)sulfonyl)phenyl)cinnolin-4-amine], the EC50 in assay [1] was more than 20 µM; in assay [2] (setting [5]), 4.9 µM; in assay [3] it was 1.9 ± 0.073 µM; in assay [4] it was 3.8 µM.

In the case of `CN1CCN(S(=O)(=O)c2ccc(-c3ccc4nncc(Nc5ccc(OC(F)(F)F)cc5)c4c3)cc2)CC1` [Compound 20a, 6-(4-((4-Methylpiperazin-1-yl)sulfonyl)phenyl)-N-(4-(trifluoromethoxy)phenyl)cinnolin-4-amine], the EC50 in assay [1] amounted to 4.8 µM; in assay [2] (setting [5]), 0.11 µM; in assay [3], 0.35 ± 0.26 µM; in assay [4] it was 6.8 µM.

`COc1cnc(Nc2cnnc3ccc(-c4ccc(S(=O)(=O)N5CCN(C)CC5)cc4)cc23)nc1` [Compound 21a, N-(5-Methoxypyrimidin-2-yl)-6-(4-((4-methylpiperazin-1-yl)sulfonyl)phenyl)cinnolin-4-amine]: the EC50 was more than 4.1 µM in assay [1], 5.77 µM in assay [2] (setting [5]), 6.6 ± 1.7 µM in assay [3] and 1.3 µM in assay [4].

Take `CN1CCN(c2ccc(-c3ccc4nncc(Nc5ncc(Cl)cn5)c4c3)cc2)CC1` [Compound 22a, N-(5-Chloropyrimidin-2-yl)-6-(4-(4-methylpiperazin-1-yl)phenyl)cinnolin-4-amine]: the EC50 is more than 4.6 µM in assay [1], more than 10 µM in assay [2] (setting [5]), 0.15 ± 0.068 µM in assay [3] and 0.31 µM in assay [4].

What is called EC50 is the concentration that produces a half-maximal response.

The record behind these values is publication PMC11915375 (ACS Infectious Diseases, 2025).
